Consider three compounds from patent KR20230168537A, “유파틸린을 포함하는 대장암 예방 또는 치료용 약학적 조성물” (고려대학교 산학협력단, priority 2022, dated 2023).

What all share (format): cell-based
In data set [1] the test system is HCT116. The data set can be described thus: MTT cell viability assay.
For data set [2], the system named is HT29. Briefly: MTT cell viability assay.
Data set [3] concerns HT29. The data set can be described thus: Mitochondrial membrane potential (JC-1). The settings on record: HT29, 100 μM, 48 h.
In data set [4] the test system is HCT116. Briefly: Annexin V/PI apoptosis assay. As to conditions: Homo sapiens, HCT-116, 48 h, read-out: increase in apoptosis versus control.
Another data set deals with GRP78. The data set can be described thus: Western blot, ER stress-related protein. The settings on record: HCT116.
In data set [5] the test system is HCT116. Briefly: ROS production (DCFH-DA).
For a further data set, the system named is ATG5. Briefly: Western blot, autophagy-related protein. The settings on record: HT29.
Data set [6] has as its system HCT116. Briefly: Cell migration assay. The settings on record: HCT116, 24 h.
The subject of a further data set is BCL-xL. The data set can be described thus: Western blot, apoptosis-related protein. The settings on record: colorectal cancer cells, 24 h.
For the next data set, the system named is P38. Briefly: Western blot, signalling protein phosphorylation. As to conditions: HCT116 and HT29 cells.
Another data set relates to S6. The data set can be described thus: Western blot, signalling protein phosphorylation. The settings on record: HCT116 and HT29 cells.
Another data set relates to ERK. Briefly: Western blot, signalling protein phosphorylation. As to conditions: HCT116 and HT29 cells.
For data set [7], the system named is HT29. Briefly: Cell migration assay. The settings on record: HT29, 24 h.
Data set [8] concerns HCT116. Briefly: BrdU cell proliferation assay. As to conditions: Homo sapiens, HCT-116; HCT116, 25 μM or more, 48 h; read-out: reduction of cell proliferation.
A further data set relates to AKT. Briefly: Western blot, signalling protein phosphorylation. As to conditions: HCT116 and HT29 cells.
Data set [9] deals with HT29. The data set can be described thus: BrdU cell proliferation assay. As to conditions: Homo sapiens, HT-29; HT29, 50 μM or more, 48 h; read-out: reduction of cell proliferation.
For a further data set, the system named is cytochrome c. The data set can be described thus: Western blot, apoptosis-related protein.
Data set [10] relates to HT29. Briefly: ROS production (DCFH-DA).
Data set [11] deals with HCT116. The data set can be described thus: Mitochondrial membrane potential (JC-1). As to conditions: 48 h.
The test system of data set [12] is HT29. Briefly: Transwell invasion assay. The settings on record: Homo sapiens, HT-29; HT29, 50 μM, 16 h; read-out: reduction in number of cells passing through Transwell.
Data set [13] relates to HCT116. Briefly: TUNEL assay, DNA fragmentation. The settings on record: HCT116, 48 h.
For a further data set, the system named is IRE1α. Briefly: Western blot, ER stress-related protein.
Data set [14] deals with HT29. The data set can be described thus: TUNEL assay, DNA fragmentation. The settings on record: HT29, 48 h.
In the next data set the test system is P90RSK. Briefly: Western blot, signalling protein phosphorylation. As to conditions: HCT116 and HT29 cells.
For the next data set, the system named is BAK. Briefly: Western blot, apoptosis-related protein.
The subject of data set [15] is HT29. The data set can be described thus: Annexin V/PI apoptosis assay. The settings on record: Homo sapiens, HT-29, 48 h, read-out: increase in apoptosis versus control.
The test system of data set [16] is HCT116. The data set can be described thus: Transwell invasion assay. As to conditions: Homo sapiens, HCT-116; HCT116, 50 μM, 16 h; read-out: reduction in number of cells passing through Transwell.
The next data set concerns P62. The data set can be described thus: Western blot, autophagy-related protein. The settings on record: HT29.
Data set [17] deals with HCT116. The data set can be described thus: Spheroid culture (hanging drop). The settings on record: HCT116, dose-dependent.
Data set [18] concerns HT29. Briefly: Spheroid culture (hanging drop). The settings on record: HT29, 50 μM.
For another data set, the system named is P70S6K. Briefly: Western blot, signalling protein phosphorylation. The settings on record: HCT116 and HT29 cells.
Another data set has as its system eIF2α. The data set can be described thus: Western blot, ER stress-related protein. As to conditions: HCT116.
The next data set has as its system LC3BⅡ. Briefly: Western blot, autophagy-related protein.
Another data set concerns JNK. Briefly: Western blot, signalling protein phosphorylation. As to conditions: HCT116 and HT29 cells.
The test system of data set [19] is colorectal cancer cells (대장암세포). The data set can be described thus: Cell cycle analysis (PI, flow cytometry). As to conditions: 100 μM, 48 h.

Turning to `CCc1c2c(nc3ccc(OC(=O)N4CCC(N5CCCCC5)CC4)cc13)-c1cc3c(c(=O)n1C2)COC(=O)[C@]3(O)CC` [Irinotecan], the cell viability with HCT116 [1] (human, hct116 cells, 5 µM) worked out at 66.6%; with HCT116 [1] (human, hct116 cells, 10 µM), 52.0%; in the data set on HCT116 [1] (human, hct116 cells, 20 µM), 43.9%; in the data set with HCT116 [1] (human, hct116 cells, 40 µM), 28.9%; with HT29 [2] (human, ht29 cells, 5 µM), 81.4%; in the data set on HT29 [2] (human, ht29 cells, 10 µM), 60.9%. Also, the cell viability in the data set with HT29 [2] (human, ht29 cells, 20 µM) turned out to be 50.1%; in the data set on HT29 [2] (human, ht29 cells, 40 µM), 30.1%.

Regarding `COc1ccc(-c2cc(=O)c3c(O)c(OC)c(O)cc3o2)cc1OC` [유파틸린, 5,7-Dihydroxy-3', 4', 6-trimethoxyflavone], the “decrease in mitochondrial membrane potential” value is listed as 1.5 fold in the data set with HT29 [3]; 2.0 fold with HCT116 [11] (HCT116, 50 μM); 2.6 fold in the data set with HCT116 [11] (HCT116, 100 μM). For the same compound, the “reduction of cell viability” value is on record as ≥ 50% with HCT116 [1] (HCT116, 25 μM or more) and ≥ 50% in the data set on HT29 [2] (HT29, 100 μM or more). Moreover, the fold induction at 50 µM in the data set on HCT116 [4] (HCT116, 50 μM) is 4.4; in the data set with HCT116 [5] (Homo sapiens, HCT-116, HCT116, 50 μM, 1 h, read-out: increase in ROS production), 15.8; in the data set on HT29 [10] (Homo sapiens, HT-29, HT29, 50 μM, 1 h, read-out: increase in ROS production), 5.6; in the data set with HT29 [15] (HT29, 50 μM), 1.6. Besides, the fold induction at 100 µM in the data set with HCT116 [4] (HCT116, 100 μM) was 13.2; with HT29 [15] (HT29, 100 μM), 1.7. Moreover, the GRP78 expression result in the data set with GRP78 is listed as “발현을 증가”. The DCF fluorescence entry in the data set with HCT116 [5] (HCT116) and with HT29 [10] (HT29) was “형광을 증가” in each case. Besides, the ATG5 expression result in the data set on ATG5 is on record as “발현을 증가”. Further, the cell migration entry with HCT116 [6] and in the data set with HT29 [7] was “세포 이주성을 현저하게 감소” throughout. For the same compound, the BCL-xL expression entry with BCL-xL is recorded as “발현을 저해”. In the data set with P38, the P38 phosphorylation result is “인산화 역시 증가”. Also, the S6 phosphorylation result in the data set with S6 is on record as “인산화를 억제”. The ERK phosphorylation result in the data set with ERK is “인산화를 유도”. In the data set with HCT116 [8], the inhibition at 25 µM was ≥ 50%. For the same compound, in the data set on AKT, the AKT phosphorylation entry is “인산화를 억제”. Further, the inhibition at 50 µM was ≥ 50% with HT29 [9], 42% with HT29 [12] and 97.2% in the data set on HCT116 [16]. Besides, the cytochrome c expression entry with cytochrome c (colorectal cancer cells, 24 h) was “발현을 증가”. Further, the “frequency of DNA fragmentation” value in the data set on HCT116 [13] and in the data set with HT29 [14] was “DNA 단편화의 빈도를 증가” throughout. Also, the IRE1α expression entry with IRE1α (HCT116) is given as “발현을 증가”. The IRE1 expression result in the data set on IRE1α (HT29, only IRE1 increased among the ER stress proteins) is “IRE1의 발현만 증가”. The P90RSK phosphorylation result in the data set with P90RSK was “인산화를 유도”. In addition, the BAK expression result with BAK (colorectal cancer cells, 24 h) was “발현을 증가”. Further, the P62 expression entry with P62 is listed as “발현을 증가”. The values for the spheroid density result in the data set on HCT116 [17] and in the data set on HT29 [18] were “용량의존적으로 스페로이드의 전체 면적 및 밀도를 감소” and “유의적으로 감소”, respectively. In addition, in the data set on HCT116 [17], the spheroid total area entry is “용량의존적으로 스페로이드의 전체 면적 및 밀도를 감소”. The P70S6K phosphorylation result with P70S6K is “인산화를 억제”. Moreover, in the data set with eIF2α, the “phosphorylated eIF2α expression” value is “발현을 증가”. Besides, the LC3BⅡ expression entry in the data set on LC3BⅡ (HCT116) and with LC3BⅡ (HT29) was “발현을 증가” throughout. In addition, the JNK phosphorylation entry in the data set on JNK was “인산화 역시 증가”. Further, the “proportion of S phase” value in [19] is “S기의 비율을 감소”. In addition, the “proportion of SubG1 phase” value in data set [19] is given as “유의적으로 증가”.

In the case of `O=c1[nH]cc(F)c(=O)[nH]1` [5-FU, 5-fluorouracil], the cell viability was 74.2% in the data set with HCT116 [1] (HCT116, anticancer drug 5 μM alone); 71.6% in the data set on HCT116 [1] (HCT116, anticancer drug 10 μM alone); 66.2% in the data set on HCT116 [1] (HCT116, anticancer drug 20 μM alone); 55.4% in the data set on HCT116 [1] (HCT116, anticancer drug 40 μM alone); 69.0% in the data set on HT29 [2] (HT29, anticancer drug 5 μM alone); 64.1% in the data set on HT29 [2] (HT29, anticancer drug 10 μM alone). In addition, the cell viability with HT29 [2] (HT29, anticancer drug 20 μM alone) amounted to 56.5%; with HT29 [2] (HT29, anticancer drug 40 μM alone) it was 50.9%. Moreover, the cytochrome c expression result in the data set on cytochrome c (5-FU-resistant HCT116) is “발현에는 영향을 미치지 못한”. Further, in the data set with BAK (5-FU-resistant HCT116), the BAK expression entry is “발현에는 영향을 미치지 못한”.
